Experimental data published in PMC9227119, “Hydroxybenzoic Acids as Acetylcholinesterase Inhibitors: Calorimetric and Docking Simulation Studies” (Nutrients, 2022).
≈ marks a conversion by molar mass, not a printed value. Where “and” joins values, the source holds several entries; their conditions need not be identical. Identical values can stand only once. Like-named read-outs stand apart in the source and are kept apart here.

Experiments:
AChE [1] = settings: colorimetric method; cited from earlier work
[2] = target: T1, Acetylcholinesterase from Electrophorus electricus (electric eel) (AChE) (Electrophorus electricus, UniProt O42275); assay: ITC: titration of AChE with ligand, complexation (association) constant; format: binding; settings: for Ka × 10^3 (binding/association constant, ITC): 36.6 °C, one binding site model; for Ka (association constant, ITC): restated in L/mol
[3] = target: T1, Acetylcholinesterase from Electrophorus electricus (electric eel) (AChE); format: biochemical; settings: 36.6 °C; for % Inhibition (inhibitory activity, ITC): AChE 1 μmol/L in cell, syringe hydroxybenzoic acid 0.5 mmol/L and ACh 1 mmol/L, mean ± SD of three; for IC50 (ITC): ligand amount per AChE monomer that inhibits ACh hydrolysis by 50%
AChE [4] = settings: inhibitory activity for AChE; cited from earlier work
AChE [5] = tested on: AChE; design: method as in PMID 18274286; settings: AChE inhibition; cited from earlier work
AChE [6] = tested on: AChE; design: method as in PMID 23229229; settings: AChE inhibition; cited from earlier work
AChE [7] = settings: anti-AChE activity; cited from earlier work
AChE [8] = settings: mice administered with streptozotocin; dose-dependent; cited from earlier work
AChE [9] = settings: AChE inhibition; literature result, no reference given; cited from earlier work

T1 sequence (O42275 24-633): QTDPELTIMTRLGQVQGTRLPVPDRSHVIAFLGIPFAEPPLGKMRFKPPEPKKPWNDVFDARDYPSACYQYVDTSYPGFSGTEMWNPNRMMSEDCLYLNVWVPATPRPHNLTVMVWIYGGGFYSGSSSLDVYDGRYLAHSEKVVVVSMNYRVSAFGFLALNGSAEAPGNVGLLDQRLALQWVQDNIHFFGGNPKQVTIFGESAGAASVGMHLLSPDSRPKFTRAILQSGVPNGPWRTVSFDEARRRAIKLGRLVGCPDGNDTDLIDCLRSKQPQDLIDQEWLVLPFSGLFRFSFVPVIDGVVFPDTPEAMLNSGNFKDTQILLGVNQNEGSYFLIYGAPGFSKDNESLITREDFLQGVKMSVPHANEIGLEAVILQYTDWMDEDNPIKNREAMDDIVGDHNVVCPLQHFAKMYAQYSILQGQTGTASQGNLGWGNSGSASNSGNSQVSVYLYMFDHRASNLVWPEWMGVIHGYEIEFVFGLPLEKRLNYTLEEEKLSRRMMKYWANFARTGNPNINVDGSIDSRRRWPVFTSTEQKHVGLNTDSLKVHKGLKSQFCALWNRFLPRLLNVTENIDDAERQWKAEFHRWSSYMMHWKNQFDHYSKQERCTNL

O=C(O)c1cccc(O)c1 [3-hydroxybenzoic acid]
Ellman’s Assay (inhibitory activity as eserine equivalent) (AChE [1]): 2.6 ± 0.1 nmol/L of Eserine
Kd [2]: 15.6 µM
Ka × 10^3 (binding/association constant, ITC) [2]: 64.10 × 10^3 L/mol
% Inhibition (inhibitory activity, ITC) [3]: 74.80 ± 8.63%
IC50 (ITC) [3]: 6.68 μmol/μmol AChE and 6.68 ± 0.77 μmol/μmol AChE

O=C(O)c1ccc(O)cc1 [4-hydroxybenzoic acid]
Ellman’s Assay (inhibitory activity as eserine equivalent) (AChE [1]): 3.7 ± 0.3 nmol/L of Eserine

O=C(O)Cc1ccc(O)cc1 [4-hydroxyphenylacetic acid]
Kd [2]: 15.1 µM
Ka × 10^3 (binding/association constant, ITC) [2]: 66.23 × 10^3 L/mol
% Inhibition (inhibitory activity, ITC) [3]: 80.20 ± 8.04%
IC50 (ITC) [3]: 6.24 μmol/μmol AChE and 6.24 ± 0.63 μmol/μmol AChE

O=C(O)C(=O)Cc1ccc(O)cc1 [4-hydroxyphenylpyruvic acid]
Ellman’s Assay (inhibitory activity as eserine equivalent) (AChE [1]): 23.6 ± 1.5 nmol/L of Eserine
Kd [2]: 3.95 µM
Ka × 10^3 (binding/association constant, ITC) [2]: 253 × 10^3 L/mol
Ka (association constant, ITC) [2]: 253000 L/mol
% Inhibition (inhibitory activity, ITC) [3]: 84.93 ± 5.82%
IC50 (ITC) [3]: 5.89 μmol/μmol AChE and 5.89 ± 0.40 μmol/μmol AChE

CCOC(=O)c1ccc(O)cc1 [ethyl 4-hydroxybenzoate]
Ellman’s Assay (inhibitory activity as eserine equivalent) (AChE [1]): 28.1 ± 0.1 nmol/L of Eserine
Kd [2]: 48.7 µM
Ka × 10^3 (binding/association constant, ITC) [2]: 20.53 × 10^3 L/mol
% Inhibition (inhibitory activity, ITC) [3]: 15.93 ± 0.75%
IC50 (ITC) [3]: 31.38 ± 1.48 μmol/μmol AChE
IC50 (ITC) ([3]; listed as ethylhydroxybenzoate): 31.38 μmol/μmol AChE

CCOC(=O)c1ccc(O)c(OC)c1 [ethyl vanillate]
Ellman’s Assay (inhibitory activity as eserine equivalent) (AChE [1]): 33.5 ± 2.5 nmol/L of Eserine
Kd [2]: 25.8 µM
Ka × 10^3 (binding/association constant, ITC) [2]: 38.76 × 10^3 L/mol
% Inhibition (inhibitory activity, ITC) [3]: 14.60 ± 2.33%
IC50 (ITC) [3]: 34.19 μmol/μmol AChE and 34.19 ± 5.46 μmol/μmol AChE

O=C(O)c1cc(O)c(O)c(O)c1 [gallic acid]
Ellman’s Assay (inhibitory activity as eserine equivalent) (AChE [1]): 3.8 ± 0.1 nmol/L of Eserine
Kd [2]: 19.4 µM
Ka × 10^3 (binding/association constant, ITC) [2]: 51.55 × 10^3 L/mol
IC50 (AChE [5]): 5.89 µM
% Inhibition (inhibitory activity, ITC) [3]: 53.70 ± 2.86%
IC50 (ITC) [3]: 9.32 μmol/μmol AChE and 9.32 ± 0.50 μmol/μmol AChE

O=C(O)c1cc(O)ccc1O [gentisic acid]
Ellman’s Assay (inhibitory activity as eserine equivalent) (AChE [1]): 68.6 ± 0.7 nmol/L of Eserine
Kd [2]: 13 µM
Ka × 10^3 (binding/association constant, ITC) [2]: 76.92 × 10^3 L/mol
% Inhibition (inhibitory activity, ITC) [3]: 62.38 ± 6.39%
IC50 (ITC) [3]: 8.02 μmol/μmol AChE and 8.02 ± 0.82 μmol/μmol AChE

O=C(O)Cc1cc(O)ccc1O [homogentisic acid]
Ellman’s Assay (inhibitory activity as eserine equivalent) (AChE [1]): 9.6 ± 2.4 nmol/L of Eserine
Kd [2]: 8.55 µM
Ka × 10^3 (binding/association constant, ITC) [2]: 116.92 × 10^3 L/mol
% Inhibition (inhibitory activity, ITC) [3]: 68.78 ± 0.88%
IC50 (ITC) [3]: 7.16 μmol/μmol AChE and 7.16 ± 0.09 μmol/μmol AChE

COc1cc(CC(=O)O)ccc1O [homovanillic acid]
Ellman’s Assay (inhibitory activity as eserine equivalent) (AChE [1]): 21.8 ± 0.4 nmol/L of Eserine
Kd [2]: 7.35 µM
Ka × 10^3 (binding/association constant, ITC) [2]: 136.05 × 10^3 L/mol
% Inhibition (inhibitory activity, ITC) [3]: 77.50 ± 2.59%
IC50 (ITC) [3]: 6.45 μmol/μmol AChE and 6.45 ± 0.22 μmol/μmol AChE

COC(=O)c1cc(OC)c(O)c(OC)c1 [methyl syringate]
Ellman’s Assay (inhibitory activity as eserine equivalent) (AChE [1]): 9.1 ±1.6 nmol/L of Eserine
Kd [2]: 6.48 µM
Ka × 10^3 (binding/association constant, ITC) [2]: 154.32 × 10^3 L/mol
Ka (association constant, ITC) [2]: 154000 L/mol
% Inhibition (inhibitory activity, ITC) [3]: 90.93 ± 7.13%
IC50 (ITC) [3]: 5.50 μmol/μmol AChE and 5.50 ± 0.43 μmol/μmol AChE

C[C@H](Cc1ccc(O)c(O)c1)[C@@H](C)Cc1ccc(O)c(O)c1 [nordihydroguaiaretic acid]
Ellman’s Assay (inhibitory activity as eserine equivalent) (AChE [1]): 37.3 ± 1.2 nmol/L of Eserine
Kd [2]: 17.3 µM
Ka × 10^3 (binding/association constant, ITC) [2]: 57.80 × 10^3 L/mol
IC50 (AChE [6]): 46.2 µM
% Inhibition (inhibitory activity, ITC) [3]: 77.20 ± 4.84%
IC50 (ITC) [3]: 6.47 μmol/μmol AChE and 6.47 ± 0.41 μmol/μmol AChE

O=C(O)c1ccc(O)c(O)c1 [protocatechuic acid]
Kd [2]: 17.4 µM
Ka × 10^3 (binding/association constant, ITC) [2]: 57.63 × 10^3 L/mol
% Inhibition (inhibitory activity, ITC) [3]: 77.15 ± 5.16%
IC50 (ITC) [3]: 6.50 ± 0.43 μmol/μmol AChE
IC50 (ITC) ([3]; listed as Protocatechic acid): 6.50 μmol/μmol AChE

O=C(O)c1ccccc1O [salicylic acid]
Ellman’s Assay (inhibitory activity as eserine equivalent) (AChE [1]): 11.8 ± 0.4 nmol/L of Eserine
Kd [2]: 19.4 µM
Ka × 10^3 (binding/association constant, ITC) [2]: 51.55 × 10^3 L/mol
% Inhibition (inhibitory activity, ITC) [3]: 82.30 ± 4.77%
IC50 (ITC) [3]: 6.07 ± 0.35 μmol/μmol AChE
IC50 (ITC) ([3]; listed as Salicylic acid): 6.07 μmol/μmol AChE

COc1cc(C(=O)O)cc(OC)c1O [syringic acid]
Ellman’s Assay (inhibitory activity as eserine equivalent) (AChE [1]): 5.4 ± 0.1 nmol/L of Eserine
Kd [2]: 5.46 µM
Ka × 10^3 (binding/association constant, ITC) [2]: 183.15 × 10^3 L/mol
Ka (association constant, ITC) [2]: 180000 L/mol
IC50 (AChE [7]): 18.73 µg/mL (≈ 94.5 µM)
% Inhibition (inhibitory activity, ITC) [3]: 71.80 ± 3.12%
IC50 (ITC) [3]: 6.96 ± 0.30 μmol/μmol AChE
IC50 (ITC) ([3]; listed as Syringic acid): 6.96 μmol/μmol AChE

COc1cc(C(=O)O)ccc1O [vanillic acid]
Ellman’s Assay (inhibitory activity as eserine equivalent) (AChE [1]): 3.2 ± 0.0 nmol/L of Eserine
Kd [2]: 19.1 µM
Ka × 10^3 (binding/association constant, ITC) [2]: 52.36 × 10^3 L/mol
AChE activity in mice (AChE [8]): reduced
% Inhibition (inhibitory activity, ITC) [3]: 73.70 ± 1.90%
IC50 (ITC) [3]: 6.79 μmol/μmol AChE and 6.79 ± 0.18 μmol/μmol AChE

COc1cc(C=O)ccc1O [vanillin]
IC50 (AChE [9]): 37 µM
